Nine compounds from patent publication US8455534B2, “Estrogen receptor modulators and uses thereof” (Aragon Pharmaceuticals, Inc., priority 2010, dated 2013) can be followed below.

A word on the IC50: it is the midpoint of a concentration-inhibition curve. Low values mean inhibition by little substance, high ones a need for much substance.

Molecules are shown by their SMILES.

Test [1] deals with MCF-7 cells. Briefly: Breast Cancer Cell Viability Assay (MCF-7, CellTiter-Glo). The class given is cell-based. Conditions: 5 days' compound exposure; for IC50: Homo sapiens, MCF7, 120 h. As to the method: MCF-7 cells were adjusted to a concentration of 20,000 cells per mL in RPMI containing 10% FBS and 20 mM HEPES. 16 microliters of the cell suspension (320 cells) was added to each well of a 384 well plate, and the cells were incubated overnight to allow the cells to adhere. The following day an eleven point, serial semilog dilution of each compound was added to the cells in 16 μL at a final concentration ranging from 0.3-0.000003 μM. After 5 days' compound exposure, 16 μL of CellTiter-GLo (Promega, Madison Wis.) was added to the cells the relative luminescence units (RLUs) of each well was determined CellTiter-Glo added to 32 μL of medium without cells was used to obtain a background value. The Percent viability of each sample was determined as follows: (RLU sample-RLU background/RLU untreated cells-RLU background)×100=% viability.

Test [2] addresses T1, ER-α (Homo sapiens, UniProt P03372).
T1 sequence (P03372 1-595): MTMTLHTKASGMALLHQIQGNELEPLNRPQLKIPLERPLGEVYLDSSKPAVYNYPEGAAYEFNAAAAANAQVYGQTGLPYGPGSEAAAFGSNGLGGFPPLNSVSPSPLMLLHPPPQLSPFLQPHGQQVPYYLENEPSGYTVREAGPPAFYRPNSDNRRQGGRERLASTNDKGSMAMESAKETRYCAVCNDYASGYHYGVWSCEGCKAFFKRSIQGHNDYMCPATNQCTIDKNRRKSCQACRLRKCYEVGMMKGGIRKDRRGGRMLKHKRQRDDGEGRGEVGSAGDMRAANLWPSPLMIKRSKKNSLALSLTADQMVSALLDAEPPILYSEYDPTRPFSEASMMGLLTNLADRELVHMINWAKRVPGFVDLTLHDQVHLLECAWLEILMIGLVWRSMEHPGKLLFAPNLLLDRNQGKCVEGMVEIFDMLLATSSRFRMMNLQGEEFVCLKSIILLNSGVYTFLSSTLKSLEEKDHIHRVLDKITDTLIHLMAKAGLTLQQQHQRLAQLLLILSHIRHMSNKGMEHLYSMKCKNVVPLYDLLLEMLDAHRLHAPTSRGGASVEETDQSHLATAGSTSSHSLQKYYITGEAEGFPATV
Briefly: Breast Cancer Cell ER-α In Cell Western Assay (SP1). Format: cell-based. Conditions: MCF-7 cells, SP1 antibody, 4 or 24 hr post compound addition; for Emax: MCF7, read-out: ER-α In Cell Western Assay (SP1) Max Response; for DC50: read-out: ER-α In Cell Western Assay (SP1) IC50. How it is done: MCF-7 cells were adjusted to a concentration of 200,000 cells per mL in RPMI containing 10% charcoal-stripped FBS and 20 mM HEPES. 16 microliters of the cell suspension (3200 cells) was added to each well of a poly-D-lysine 384 well plate, and the cells were incubated overnight to allow the cells to adhere. The following day an eleven point, serial semilog dilution of each compound was added to the cells in 16 μL at a final concentration ranging from 0.3-0.000003 μM. At 4 or 24 hr post compound addition, the cells were fixed (10% formalin in PBS) for 20 minutes. Cells were permeablized in PBS 0.1% Triton and blocked with LICOR blocking buffer (50 μL1/well, 90′). The wells were then incubated overnight at 4° C. with SP1 rabbit monoclonal Ab (Thermo Scientific) diluted 1:1000 in LICOR blocking buffer/0.1% Tween-20. Wells which were treated with blocking buffer with Tween but no antibody were used as a background control. Wells were washed with 0.1% Tween-20/PBS and then incubated in goat anti-rabbit IRDye™ 800CW (LICOR Inc.; 1:1000) and DRAQ5 DNA dye (1:2000 for 2 mM stock) diluted in LICOR blocking buffer containing 0.1% Tween-20 and 0.01% SDS for 60 minutes. Cells were washed (50 μl/well, 5′ each) in 0.1% Tween-20/PBS. Plates were scanned on a LICOR Odyssey infrared imaging system. Integrated intensities in the 800 nm channel and 700 nm channel were measured to determine levels of ER and DNA respectively. Percent ER levels were determined as follows: (Integrated intensity 800 nm sample/integrated intensity 700 nm sample)/(Integrated intensity 800 nm untreated cells/integrated intensity 700 nm untreated cells)×100=% ER levels.

As for `CC/C(=C(/c1ccc(/C=C/C(=O)O)cc1)c1ccc2[nH]ncc2c1)c1ccccc1Cl` [Compound 14, (E)-3-(4-((E)-2-(2-chlorophenyl)-1-(1H-indazol-5-yl)but-1-en-1-yl)phenyl)acrylic acid], in test [1], the “MCF7 Viability Assay Max Response” value was “++ (++ = a single % value ≧ 40%)” and the IC50 was at most 100 nM. Also, in test [2], the Emax is at least 40%.
For `CC/C(=C(/c1ccc(/C=C/C(=O)O)cc1)c1ccc2[nH]ncc2c1)c1cccc(Cl)c1` [Compound 15, (E)-3-(4-((E)-2-(3-Chlorophenyl)-1-(1H-indazol-5-yl)but-1-en-1-yl)phenyl)acrylic acid] the same measures were “++ (++ = a single % value ≧ 40%)”, at most 100 nM and at least 40%.
In the case of `CC/C(=C(/c1ccc(/C=C/C(=O)O)cc1)c1ccc2[nH]ncc2c1)c1ccccc1F` [Compound 16, (E)-3-(4-((E)-2-(2-Fluorophenyl)-1-(1H-indazol-5-yl)but-1-en-1-yl)phenyl)acrylic acid], in test [1], the “MCF7 Viability Assay Max Response” value is “++ (++ = a single % value ≧ 40%)” and the IC50 was at most 100 nM. Moreover, in test [2], the Emax was at least 40% and the DC50 is at most 100 nM.
Regarding `CC/C(=C(/c1ccc(/C=C/C(=O)O)cc1)c1ccc2[nH]ncc2c1)c1cccc(F)c1` [Compound 17, (E)-3-(4-((E)-2-(3-Fluorophenyl)-1-(1H-indazol-5-yl)but-1-en-1-yl)phenyl)acrylic acid], in test [1], the “MCF7 Viability Assay Max Response” value was “++ (++ = a single % value ≧ 40%)” and the IC50 is at most 100 nM. In addition, in test [2], the Emax is at least 40% and the DC50 is at most 100 nM.
Regarding `CC/C(=C(/c1ccc(/C=C/C(=O)O)cc1)c1ccc2[nH]ncc2c1)c1ccccc1CC` [Compound 18, (E)-3-(4-((E)-2-(2-Ethylphenyl)-1-(1H-indazol-5-yl)but-1-en-1-yl)phenyl)acrylic acid], in test [1], the “MCF7 Viability Assay Max Response” value is recorded as “++ (++ = a single % value ≧ 40%)” and the IC50 is at most 100 nM. Moreover, in test [2], the Emax was at least 40% and the DC50 was at most 100 nM.
`CC/C(=C(/c1ccc(/C=C/C(=O)O)cc1)c1ccc2[nH]ncc2c1)c1ccccc1C(F)(F)F` [Compound 19, (E)-3-(4-((E)-1-(1H-Indazol-5-yl)-2-(2-(trifluoromethyl)phenyl)but-1-en-1-yl)phenyl)acrylic acid]: in test [1], the “MCF7 Viability Assay Max Response” value is “++ (++ = a single % value ≧ 40%)” and the IC50 was at most 100 nM. For the same compound, in test [2], the Emax was at least 40% and the DC50 was at most 100 nM.
Take `O=C(O)/C=C/c1ccc(/C(=C(/CCCl)c2ccccc2)c2ccc3[nH]ncc3c2)cc1` [Compound 20, (E)-3-(4-((E)-4-Chloro-1-(1H-indazol-5-yl)-2-phenylbut-1-en-1-yl)phenyl)acrylic acid]: in test [1], the “MCF7 Viability Assay Max Response” value is “++ (++ = a single % value ≧ 40%)” and the IC50 was at most 100 nM. In test [2], the Emax is at least 40% and the DC50 was at most 100 nM.
`CC/C(=C(/c1ccc(/C=C/C(=O)O)cc1)c1ccc2[nH]ncc2c1)c1ccccc1C#N` [Compound 21, (E)-3-(4-((E)-2-(2-Cyanophenyl)-1-(1H-indazol-5-yl)but-1-en-1-yl)phenyl)acrylic acid]: in test [1], the “MCF7 Viability Assay Max Response” value is given as “++ (++ = a single % value ≧ 40%)” and the IC50 was at most 100 nM. The Emax in test [2] was at least 40%.
As for `CC/C(=C(/c1ccc(/C=C/C(=O)O)cc1)c1ccc2[nH]ncc2c1)c1ccc(F)cc1F` [Compound 22, (E)-3-(4-((E)-2-(2,4-Difluorophenyl)-1-(1H-indazol-5-yl)but-1-en-1-yl)phenyl)acrylic acid], in test [1], the “MCF7 Viability Assay Max Response” value is recorded as “++ (++ = a single % value ≧ 40%)” and the IC50 was at most 100 nM. For the same compound, in test [2], the Emax was at least 40% and the DC50 was at most 100 nM.
